According to ChEMBL document CHEMBL1201862, “PubChem BioAssay data set” (2004):
Activity calls are given as the source filed them.

Assays:
[1] = target: T1, E3 ubiquitin-protein ligase XIAP (Homo sapiens, UniProt P98170); experiment: XIAP antagonists, biochemical, IAP family, fluorescence polarization (AID 1018); format: functional
[2] = target: T1, E3 ubiquitin-protein ligase XIAP; experiment: Counter Screen using XIAP-Bir3 for Chemical Antagonists of Bir1/2 domains of IAP-family anti-apoptotic proteins. [Related pubchem assays (depositor defined):AID1018, AID1449, AID1514, AID1638, AID1749, AID1750, AID488957, AID488963]
[3] = target: Intestinal-type alkaline phosphatase (Homo sapiens, UniProt P09923); experiment: inhibition of human intestinal alkaline phosphatase – biochemical, dose response (AID 488876); format: functional
[4] = target: T2, Alkaline phosphatase, tissue-nonspecific isozyme (Homo sapiens, UniProt P05186); experiment: TNAP enzyme inhibition by screening hits, dose response, selectivity assay for mouse IAP inhibitor project, biochemical, human TNAP, uHTS hits (AID 488906); format: functional
T2 sequence (P05186 whole entry): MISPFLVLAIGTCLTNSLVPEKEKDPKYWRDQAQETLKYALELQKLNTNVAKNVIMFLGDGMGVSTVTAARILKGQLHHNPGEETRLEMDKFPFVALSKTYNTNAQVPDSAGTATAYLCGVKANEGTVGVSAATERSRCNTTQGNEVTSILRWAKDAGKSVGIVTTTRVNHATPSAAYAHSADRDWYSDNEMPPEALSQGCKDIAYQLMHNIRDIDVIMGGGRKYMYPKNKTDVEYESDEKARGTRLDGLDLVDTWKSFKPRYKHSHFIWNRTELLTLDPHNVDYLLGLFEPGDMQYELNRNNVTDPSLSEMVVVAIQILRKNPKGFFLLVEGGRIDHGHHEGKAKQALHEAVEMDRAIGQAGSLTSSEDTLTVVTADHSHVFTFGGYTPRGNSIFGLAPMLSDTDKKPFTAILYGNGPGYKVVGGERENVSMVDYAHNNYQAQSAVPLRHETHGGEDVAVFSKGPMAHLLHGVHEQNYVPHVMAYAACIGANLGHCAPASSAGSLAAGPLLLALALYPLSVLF

[5] = target: Intestinal-type alkaline phosphatase (Mus musculus, UniProt P24822); experiment: PubChem AID 488785; format: functional
[6] = CRF-BP/CRF-R2 complex antagonists, dose response, cell-based, uHTS hits, 384-well (AID 651639); format: functional, Homo sapiens; settings: read-out: IC50_Mean
HEK293 [7] = experiment: NOD2 signaling inhibitors in MDP-stimulated cells, cell-based, uHTS, luminescence (AID 2001); format: functional; settings: Homo sapiens
HEK293 [8] = experiment: cells; format: functional, cell-based; settings: Homo sapiens
HEK293 [9] = experiment: NOD1 signaling inhibitors, primary screen, cell-based, luminescence, uHTS (AID 1578); format: functional; settings: Homo sapiens
HEK293 [10] = experiment: cells; format: functional, cell-based; settings: Homo sapiens; remark: listed apart in the source
Streptococcus = experiment: Group A Streptococcus viability loss, dose response, counter-screen for streptokinase expression inhibitor project, luminescence, BacTiterGlo (AID 1915); format: functional, organism-based;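 note: potency for reduction of bacterial viability or growth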
[11] = tested on: Streptococcus sp. 'group A'; experiment: growth inhibition of control SK(-) GAS strain, dose response, counter-screen for streptokinase expression inhibitor project, luminescence, kanamycin, BacTiterGlo, confirmation (AID 1900); format: functional, organism-based
HEK293 [12] = experiment: cells; settings: Homo sapiens
[13] = inhibitors of firefly luciferase expression or activity, dose response, H4 neuroglioma cells, luminescence (AID 1990); format: functional, cell-based
[14] = inhibitors of SNCA 5'UTR-driven reporter translation, confirmation, H4 neuroglioma cells, luminescence (AID 1988); format: functional, cell-based
[15] = Luminescence Cell-Based Dose Response HTS to Identify Inhibitors of 5'UTR Stem-Loop Driven Prion Protein mRNA Translation in H4 Neuroglioblastoma Cells. [Related pubchem assays: 1827 (Project Summary), 1813 (Primary HTS)]; format: functional
[16] = NIH-3T3 fibroblast cytotoxicity, dose response, cytotoxicity control, cell-based, fluorescence, Alamar Blue, secondary assay (AID 2327); format: functional;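 note: NIH-3T3 mouse fibroblasts cultured with fluconazole at 8 µg/mL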
[17] = inhibitors of intracellular T. cruzi replication, confirmation, NIH3T3 host cells, beta-gal luminescence (AID 2044); format: functional, cell-based;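 note: intracellular parasites grown in NIH/3T3 mouse fibroblasts as host cells; luminescent beta-galactosidase reporter signal from transgenic T. cruzi replicating inside host cells; inhibitors lower the luminescence signal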
[18] = cytotoxicity toward NIH3T3 fibroblasts, dose response, counter-screen, cell-based, ATP luminescence, mouse fibroblasts (AID 2010); format: functional;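 note: cells exposed to compound for about 90 hours before reading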
[19] = C. albicans growth with fluconazole, confirmation, fluorescence, retest (AID 2467); format: functional, cell-based
Exodeoxyribonuclease V = target: T3, Exodeoxyribonuclease V (Escherichia coli (strain K12), UniProt P04993+P07648+P08394); experiment: E. coli RecBCD inhibitors, dose response, counter-screen for AddAB inhibitor project, absorbance, V66 E. coli, mutant T4 phage (AID 492957); format: functional, cell-based, Escherichia coli str. K-12 substr. MG1655
T3 sequence (P04993 whole entry): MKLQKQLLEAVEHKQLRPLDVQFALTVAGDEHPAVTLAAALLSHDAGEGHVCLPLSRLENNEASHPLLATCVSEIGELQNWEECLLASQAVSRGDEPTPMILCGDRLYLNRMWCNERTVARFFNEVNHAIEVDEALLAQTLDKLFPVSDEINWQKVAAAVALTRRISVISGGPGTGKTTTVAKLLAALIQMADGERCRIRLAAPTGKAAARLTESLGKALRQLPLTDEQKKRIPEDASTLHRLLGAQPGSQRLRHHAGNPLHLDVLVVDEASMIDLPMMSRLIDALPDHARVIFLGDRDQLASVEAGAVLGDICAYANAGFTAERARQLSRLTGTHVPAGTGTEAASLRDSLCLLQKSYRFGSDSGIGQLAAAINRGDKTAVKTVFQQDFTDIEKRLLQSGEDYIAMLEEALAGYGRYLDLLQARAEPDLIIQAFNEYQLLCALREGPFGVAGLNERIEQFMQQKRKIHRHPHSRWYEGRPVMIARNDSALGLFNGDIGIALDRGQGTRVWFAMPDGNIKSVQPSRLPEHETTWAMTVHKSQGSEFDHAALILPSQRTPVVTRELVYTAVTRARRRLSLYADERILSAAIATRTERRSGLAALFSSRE
T3 sequence (P07648 whole entry): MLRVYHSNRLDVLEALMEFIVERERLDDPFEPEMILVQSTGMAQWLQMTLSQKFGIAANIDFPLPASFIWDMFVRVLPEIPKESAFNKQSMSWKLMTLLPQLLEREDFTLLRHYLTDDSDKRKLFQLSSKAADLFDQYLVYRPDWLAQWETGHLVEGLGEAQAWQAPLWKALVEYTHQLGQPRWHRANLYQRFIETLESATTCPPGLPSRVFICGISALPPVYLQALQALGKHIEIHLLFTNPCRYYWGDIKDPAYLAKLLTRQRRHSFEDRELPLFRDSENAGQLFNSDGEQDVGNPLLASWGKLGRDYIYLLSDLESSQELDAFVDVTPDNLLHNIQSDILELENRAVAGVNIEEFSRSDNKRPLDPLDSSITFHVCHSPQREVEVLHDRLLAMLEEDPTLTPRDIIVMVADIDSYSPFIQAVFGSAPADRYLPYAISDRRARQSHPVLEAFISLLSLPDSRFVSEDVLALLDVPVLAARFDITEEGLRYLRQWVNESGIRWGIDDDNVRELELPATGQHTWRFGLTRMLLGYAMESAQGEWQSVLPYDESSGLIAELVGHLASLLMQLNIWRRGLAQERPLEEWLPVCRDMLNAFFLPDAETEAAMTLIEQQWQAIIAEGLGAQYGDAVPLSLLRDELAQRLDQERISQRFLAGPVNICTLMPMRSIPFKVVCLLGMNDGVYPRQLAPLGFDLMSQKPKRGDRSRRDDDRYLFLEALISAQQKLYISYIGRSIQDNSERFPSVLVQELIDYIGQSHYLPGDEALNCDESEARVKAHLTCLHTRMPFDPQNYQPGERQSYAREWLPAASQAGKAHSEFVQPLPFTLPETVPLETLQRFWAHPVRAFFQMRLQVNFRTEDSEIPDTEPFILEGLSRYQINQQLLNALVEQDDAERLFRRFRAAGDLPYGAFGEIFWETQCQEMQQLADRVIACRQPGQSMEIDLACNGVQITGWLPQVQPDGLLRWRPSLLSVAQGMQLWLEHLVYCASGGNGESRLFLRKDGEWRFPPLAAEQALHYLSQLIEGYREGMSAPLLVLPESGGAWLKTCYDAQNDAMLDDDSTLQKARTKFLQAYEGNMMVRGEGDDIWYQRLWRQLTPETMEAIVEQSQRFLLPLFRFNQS
T3 sequence (P08394 whole entry): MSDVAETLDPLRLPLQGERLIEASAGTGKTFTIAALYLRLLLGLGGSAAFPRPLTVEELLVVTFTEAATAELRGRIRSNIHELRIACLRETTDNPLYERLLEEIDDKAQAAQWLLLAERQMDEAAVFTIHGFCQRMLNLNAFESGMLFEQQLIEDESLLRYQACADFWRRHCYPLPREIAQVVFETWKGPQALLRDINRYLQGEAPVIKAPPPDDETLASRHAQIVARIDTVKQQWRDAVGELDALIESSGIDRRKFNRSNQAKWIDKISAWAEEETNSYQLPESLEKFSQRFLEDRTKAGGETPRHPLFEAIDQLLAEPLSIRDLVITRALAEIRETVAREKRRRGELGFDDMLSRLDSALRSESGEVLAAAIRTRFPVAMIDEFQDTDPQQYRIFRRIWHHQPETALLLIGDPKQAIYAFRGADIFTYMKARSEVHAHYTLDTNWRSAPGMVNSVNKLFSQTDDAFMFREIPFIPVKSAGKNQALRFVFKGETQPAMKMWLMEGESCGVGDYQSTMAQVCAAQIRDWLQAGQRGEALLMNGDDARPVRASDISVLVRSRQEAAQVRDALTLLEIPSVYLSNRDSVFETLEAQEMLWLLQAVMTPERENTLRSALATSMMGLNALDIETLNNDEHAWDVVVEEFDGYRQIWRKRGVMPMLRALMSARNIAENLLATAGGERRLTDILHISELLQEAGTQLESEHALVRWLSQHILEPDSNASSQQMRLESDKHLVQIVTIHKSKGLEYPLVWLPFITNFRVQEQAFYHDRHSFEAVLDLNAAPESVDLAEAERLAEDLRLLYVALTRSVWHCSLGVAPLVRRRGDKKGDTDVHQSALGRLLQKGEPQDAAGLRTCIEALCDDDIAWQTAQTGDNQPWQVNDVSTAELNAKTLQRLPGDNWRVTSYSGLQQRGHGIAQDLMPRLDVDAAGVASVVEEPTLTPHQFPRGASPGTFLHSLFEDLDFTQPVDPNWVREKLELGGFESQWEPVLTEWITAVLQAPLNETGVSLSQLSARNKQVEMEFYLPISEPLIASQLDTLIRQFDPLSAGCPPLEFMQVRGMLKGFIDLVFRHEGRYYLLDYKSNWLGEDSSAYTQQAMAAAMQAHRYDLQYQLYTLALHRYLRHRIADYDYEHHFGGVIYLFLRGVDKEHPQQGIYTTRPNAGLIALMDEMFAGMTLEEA

[20] = Counterscreen for AddAB inhibitors: absorbance-based bacterial cell-based high throughput dose response assay for inhibitors of bacterial viability. [Related pubchem assays (depositor defined):AID435030, AID449728, AID449731, AID488942, AID488955, AID488956]; format: functional
INS1 = experiment: beta cell apoptosis inhibitors, cytokine rescue, dose response, luminescence, retest (AID 449756); format: functional, cell-based; settings: Rattus norvegicus;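 note: cell death triggered by IL-1 beta plus TNF-alpha plus IFN-gamma mixture; protective hits raise ATP signal compared with cytokine alone wells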
cells [21] = format: functional, cell-based
[22] = human group III sPLA2 inhibitors, dose response, biochemical, QFRET, IC50 (AID 743457);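 note: green fluorescence rise as the enzyme cleaves BODIPY PC-A2 in liposomes; potency for inhibition of the enzyme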
cells [23] = format: functional, cell-based; remark: listed apart in the source
[24] = target: Heat shock protein HSP 90-alpha (Homo sapiens, UniProt P07900); format: functional, organism-based

T1 sequence (P98170 whole entry): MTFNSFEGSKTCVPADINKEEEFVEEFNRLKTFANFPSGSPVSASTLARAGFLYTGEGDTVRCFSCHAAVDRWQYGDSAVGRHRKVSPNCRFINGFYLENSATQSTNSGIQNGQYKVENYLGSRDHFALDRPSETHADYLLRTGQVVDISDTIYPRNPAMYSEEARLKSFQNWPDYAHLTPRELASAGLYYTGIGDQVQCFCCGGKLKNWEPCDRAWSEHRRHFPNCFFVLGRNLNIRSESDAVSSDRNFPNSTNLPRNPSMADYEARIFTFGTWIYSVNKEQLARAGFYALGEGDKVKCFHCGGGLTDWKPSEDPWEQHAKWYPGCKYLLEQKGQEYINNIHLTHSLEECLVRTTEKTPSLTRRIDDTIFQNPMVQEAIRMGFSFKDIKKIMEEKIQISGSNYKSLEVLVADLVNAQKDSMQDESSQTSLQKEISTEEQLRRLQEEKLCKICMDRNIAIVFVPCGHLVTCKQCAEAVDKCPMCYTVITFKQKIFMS
Intestinal-type alkaline phosphatase (Mus musculus, UniProt P24822), sequence (P24822 whole entry): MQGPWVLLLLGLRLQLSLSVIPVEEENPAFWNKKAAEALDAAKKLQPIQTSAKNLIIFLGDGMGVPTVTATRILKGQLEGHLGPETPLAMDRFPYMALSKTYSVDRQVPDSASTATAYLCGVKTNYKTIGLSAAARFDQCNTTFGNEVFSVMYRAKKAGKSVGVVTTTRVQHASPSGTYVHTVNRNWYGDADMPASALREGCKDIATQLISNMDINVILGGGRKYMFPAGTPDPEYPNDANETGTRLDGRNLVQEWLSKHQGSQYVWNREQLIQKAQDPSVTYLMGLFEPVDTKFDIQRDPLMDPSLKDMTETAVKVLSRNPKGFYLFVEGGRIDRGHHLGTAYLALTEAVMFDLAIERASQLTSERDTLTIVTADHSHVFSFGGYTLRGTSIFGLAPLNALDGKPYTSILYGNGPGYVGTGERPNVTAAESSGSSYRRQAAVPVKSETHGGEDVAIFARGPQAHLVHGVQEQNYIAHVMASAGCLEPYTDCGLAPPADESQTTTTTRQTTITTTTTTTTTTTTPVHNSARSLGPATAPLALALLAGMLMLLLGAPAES
Intestinal-type alkaline phosphatase (Homo sapiens, UniProt P09923), sequence (P09923 whole entry): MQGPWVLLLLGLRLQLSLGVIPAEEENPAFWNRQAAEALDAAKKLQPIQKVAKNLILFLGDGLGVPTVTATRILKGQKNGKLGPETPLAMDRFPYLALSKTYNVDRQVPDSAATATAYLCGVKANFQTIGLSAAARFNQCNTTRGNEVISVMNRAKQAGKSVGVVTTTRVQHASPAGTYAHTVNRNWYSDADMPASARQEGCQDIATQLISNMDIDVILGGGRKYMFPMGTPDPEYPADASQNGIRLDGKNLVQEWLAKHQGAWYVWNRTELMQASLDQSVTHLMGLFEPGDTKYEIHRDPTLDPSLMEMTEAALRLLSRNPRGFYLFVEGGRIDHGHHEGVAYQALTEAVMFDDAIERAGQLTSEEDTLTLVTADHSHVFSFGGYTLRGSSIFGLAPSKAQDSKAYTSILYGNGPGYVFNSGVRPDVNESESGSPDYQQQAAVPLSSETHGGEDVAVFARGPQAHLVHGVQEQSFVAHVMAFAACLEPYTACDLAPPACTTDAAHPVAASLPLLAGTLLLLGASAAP

CCN(CC)S(=O)(=O)c1cccc(C(=O)c2c(C)cc3ccccn23)c1
IC50 [1]: > 100 µM (not active) | IC50 [2]: > 100 µM (inactive)

O=C(Nc1cccc(-c2cccc(Cl)c2)c1)C1CCN(C2CCC2)CC1
IC50 [3]: 8.64 µM (active) | IC50 [4]: 11.8 µM (active) | IC50 [5]: 9.39 µM (active)

CC(C)C(c1nnnn1C(C)(C)C)N1CCC(Cc2ccccc2)CC1 (centres undefined)
IC50 [1]: > 100 µM (not active) | IC50 [2]: > 100 µM (inactive)

Cc1ccc(SCc2cc(O)nc(SCC(=O)Nc3cc(Cl)ccc3Cl)n2)cc1
IC50 [6]: > 20 µM (inactive) | IC50 (HEK293 [7]): 9.47 µM (inactive) | IC50 (HEK293 [8]): > 20 µM (inactive) | EC50 (HEK293 [9]): 6.75 µM (active) | IC50 (HEK293 [10]): > 20 µM (inactive) | EC50 (Streptococcus): 38.5 µM (active) | EC50 [11]: 9.13 µM (active) | IC50 (HEK293 [12]): > 20 µM (inactive)

O=C(c1cc(-n2cnnc2)ccc1Cl)N1CCN(c2nc(-c3ccccc3)cs2)CC1
IC50 [1]: > 100 µM (not active) | EC50 [13]: > 30 µM (not active) | EC50 [14]: > 120 µM (not active) | EC50 [15]: 15.1 µM (active) | IC50 [2]: > 100 µM (inactive)

O=C(NCCCCc1ccccc1)NC[C@@H]1CC[C@@H](Cc2ccc(-c3ccccc3)cc2)O1
IC50 [3]: 2.1 µM (active) | IC50 [4]: 15.6 µM (active) | IC50 [5]: 2.6 µM (active)

C=CCc1cccc(/C=N/NC(=O)CNc2ccccc2OC)c1O
EC50 [16]: > 160 µM (inactive) | EC50 [17]: 2.01 µM (active) | EC50 [18]: 7.37 µM (active) | EC50 [19]: > 38 µM (not active) | IC50 (Exodeoxyribonuclease V): > 119 µM (inactive) | IC50 [20]: > 119 µM (inactive)

CCCCC(=O)NC(c1cccs1)c1cc(Cl)c2cccnc2c1O (centres undefined)
AC50 (INS1): 1.19 µM (active) | EC50 (cells [21]): 57.5 µM (active) | IC50 [22]: > 122 µM (inactive) | EC50 (cells [23]): > 350 µM (not active) | IC50 (Exodeoxyribonuclease V): > 119 µM (inactive) | IC50 [20]: > 119 µM (inactive) | AC50 [24]: 3.6 µM (active)

Cc1ccc(CN2C3CCCC2CC(NC(=O)Nc2cccc(F)c2)C3)cc1 (centres undefined)
IC50 [3]: > 100 µM (inactive) | IC50 [4]: 63.3 µM (active) | IC50 [5]: 9.9 µM (active)
